Data taken from patent US20100216994A1, “USE OF NOVEL COMPOUND HAVING AFFINITY FOR AMYLOID, AND PROCESS FOR PRODUCTION OF THE SAME” (NIHON MEDI-PHYSICS CO., LTD., priority 2007, published 2010).
Like-named read-outs stand apart in the source and are kept apart here.

How the values were obtained:
[1] = [^125I]-labeled compounds, normal mice, brain; cited from earlier work
[2] = tested on: intracerebral amyloid (aggregated Aβ1-42); test: Confirmation of imaging of amyloid in brain (autoradiogram of brain slice, amyloid injected into amygdaloid nucleus); assay type: in vivo, male Wistar rat; conditions: rat, tail vein injection, brain removed 60 minutes after injection
Description: (§1) The following experiment was carried out in order to examine whether amyloid in brain can be imaged by the compound of the present invention.
(§2) (1) Aβ1-42 (Wako) was dissolved in phosphate buffer (pH 7.4) and shaken at 37° C. for 72 hours, to obtain a 1 mg/mL suspension of aggregated Aβ (hereinafter referred to as amyloid suspension in this Example).
(§3) (2) Under thiopental anesthesia, […] of the amyloid suspension was injected into an amygdaloid nucleus on one side of a male Wistar rat (7-week old). As a control, 2.5 μL of a phosphate buffered physiological saline solution (pH 7.4) was injected into an amygdaloid nucleus on the other side of the rat. The rats were examined 1 day after the injection of the amyloid suspension and the phosphate buffered physiological saline solution (pH 7.4).
(§4) This sample solution was injected under thiopental anesthesia into the rat through the tail vein (dosage: 0.5 mL, dosed radioactivity: 16 MBq equivalent).
(§5) (4) Brain was removed 60 minutes after the injection to prepare a brain slice of 10 μm in thickness with a microtome (type: CM3050S, manufactured by LEICA). The brain slice was exposed to an imaging plate for 20 hours, and then image analysis was carried out by use of a Bio-imaging Analyzer (type: BAS-2500; manufactured by FUJIFILM Corporation).

[3] = biological target: T1, intracerebral amyloid (aggregated Aβ1-42) (Homo sapiens, UniProt P05067); test: as above; assay type: in vivo, male Wistar rat; conditions: rat, tail vein injection, brain removed 60 minutes after injection
T1 construct: Aβ1-42 (Wako) was dissolved in phosphate buffer (pH 7.4); purchased Wako
Description: as §1, §2, §3, §4, §5

[4] = Partition coefficient based on the octanol extraction method (logPoctanol); conditions: octanol / 10 mmol/L phosphate buffer (pH 7.4)
[5] = Transferability into brain and clearance (radioactive accumulation in brain after intravenous injection); conditions: rats
Description: Using [^123I]-2-(4′-iodophenyl)-6-methoxyimidazo[1,2-a]pyridine and [^123I]-2-(4′-fluorophenyl)-6-iodoimidazo[1,2-a]pyridine, a time course change of radioactive accumulation in brain of male Wistar rats (7-week old) was measured.
The rats were sacrificed by bleeding from abdominal artery, and brains were removed and subjected to measurement of mass of brains (hereinafter referred to as A in this Example) and further subjected to measurement of radioactivity with a single channel analyzer (detector type: SP-20 manufactured by OHYO KOKEN KOGYO Co., Ltd.) 2, 5, 30 and 60 minutes after the injection. Also, radioactivity (hereinafter referred to as B in this Example) of the rest of the whole body was measured in the same manner as above.
The same procedures as above was conducted and subjected to the same procedures as above to calculate radioactive accumulation per unit weight of a brain (% ID/g) at the respective time points were calculated.
Three animals were used for Example 15, Example 16 and Comparative Example 2 at the respective time points.

[6] = SD rat; for radioactive distribution per unit weight, Adrenal gland, Average / radioactive distribution per unit weight, Blood, Average / radioactive distribution per unit weight, Bone, Average / radioactive distribution per unit weight, Brain, Average / radioactive distribution per unit weight, Heart, Average / radioactive distribution per unit weight, Kidney, Average / radioactive distribution per unit weight, Large intestine, Average / radioactive distribution per unit weight, Liver, Average / radioactive distribution per unit weight, Lung, Average / radioactive distribution per unit weight, Marrow, Average / radioactive distribution per unit weight, Muscle, Average / radioactive distribution per unit weight, Pancreas, Average / radioactive distribution per unit weight, Small intestine, Average / radioactive distribution per unit weight, Spleen, Average / radioactive distribution per unit weight, Stomach, Average: tail vein
Description: 0.2 mL each of the prepared sample solution was administered under non-thiopental anesthesia into the tail vein of the above rat. The rats were sacrificed by bleeding from abdominal artery, and each organ shown in Table 4 was removed 5, 30, 60 and 180 minutes after the administration. Each removed organ was subjected to measurement of mass and radioactivity with the same method as in Example 15. Also, radioactivity of the whole body of the rat after removal of the organs (hereinafter, refers to rest of the whole body) was measured. Using these measurement results, radioactive distribution per unit weight of each organ (% ID/g) at the respective time points was calculated in accordance with the following formula (4).
Three animals were used for the experiment at the respective time points.
R^T: Radioactivity of target organ (cpm) RS: Sum of radioactivity of all the organs (cpm)
R^R: Radioactivity of the rest of the whole body (cpm)
M^T: Mass of target organ (g)

T1 sequence (P05067 672-713): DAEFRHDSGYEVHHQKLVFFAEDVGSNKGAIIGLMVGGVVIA

Compound: CN(C)c1ccc(-c2nc3ccc(I)cc3o2)cc1 [IBOX, 6-iodo-2-[4′-(N,N-dimethylamino)phenyl]benzoxazole]
- clearance from normal tissues [1]: insufficient in clearance from normal tissues

Compound: Fc1ccc(-c2cn3cc([123I])ccc3n2)cc1 [[^123I]-2-(4′-fluorophenyl)-6-iodoimidazo[1,2-a]pyridine]
- accumulation of radioactivity in amygdaloid nucleus on the side to which the physiological saline solution was injected [2]: no significant accumulation of radioactivity
- accumulation of radioactivity in amygdaloid nucleus on the side to which the amyloid suspension was injected [3]: marked accumulation of radioactivity
- logPoctanol value [4]: 2.3
- Radioactive accumulation per unit weight in brain ([5]; after 2 min.): 1.00 % ID/g
- Radioactive accumulation per unit weight in brain ([5]; after 5 min.): 0.72 % ID/g
- Radioactive accumulation per unit weight in brain ([5]; after 30 min.): 0.12 % ID/g
- Radioactive accumulation per unit weight in brain ([5]; after 60 min.): 0.05 % ID/g

Compound: COc1ccc2nc(-c3ccc([123I])cc3)cn2c1 [[^123I]-2-(4′-iodophenyl)-6-methoxyimidazo[1,2-a]pyridine]
- accumulation of radioactivity in amygdaloid nucleus on the side to which the physiological saline solution was injected [2]: no significant accumulation of radioactivity
- accumulation of radioactivity in amygdaloid nucleus on the side to which the amyloid suspension was injected [3]: marked accumulation of radioactivity
- logPoctanol value [4]: 2.3
- ratio (% ID/g at 5 minutes after the administration)/(% ID/g at 180 minutes after the administration), bone ([6]; bone): 3
- ratio (% ID/g at 5 minutes after the administration)/(% ID/g at 180 minutes after the administration), brain ([6]; brain): 43
- excretion / clearance to the outside of the body ([6]; distribution moved from small intestine to large intestine): biliary-excreted rapidly after the administration
- ratio (% ID/g at 5 minutes after the administration)/(% ID/g at 180 minutes after the administration), heart ([6]; heart): 12
- ratio (% ID/g at 5 minutes after the administration)/(% ID/g at 180 minutes after the administration), lung ([6]; lung): 7
- ratio (% ID/g at 5 minutes after the administration)/(% ID/g at 180 minutes after the administration), pancreas ([6]; pancreas): 8
- radioactive distribution per unit weight, Adrenal gland, Average ([6]; 5 min. after administration): 5.163 % ID/g
- radioactive distribution per unit weight, Blood, Average ([6]; 5 min. after administration): 0.290 % ID/g
- radioactive distribution per unit weight, Bone, Average ([6]; 5 min. after administration): 0.223 % ID/g
- radioactive distribution per unit weight, Brain, Average ([6]; 5 min. after administration): 1.175 % ID/g
- radioactive distribution per unit weight, Heart, Average ([6]; 5 min. after administration): 0.752 % ID/g
- radioactive distribution per unit weight, Kidney, Average ([6]; 5 min. after administration): 1.434 % ID/g
- radioactive distribution per unit weight, Large intestine, Average ([6]; 5 min. after administration): 0.122 % ID/g
- radioactive distribution per unit weight, Liver, Average ([6]; 5 min. after administration): 1.857 % ID/g
- radioactive distribution per unit weight, Lung, Average ([6]; 5 min. after administration): 1.109 % ID/g
- radioactive distribution per unit weight, Marrow, Average ([6]; 5 min. after administration): 0.937 % ID/g
- radioactive distribution per unit weight, Muscle, Average ([6]; 5 min. after administration): 0.344 % ID/g
- radioactive distribution per unit weight, Pancreas, Average ([6]; 5 min. after administration): 0.709 % ID/g
- radioactive distribution per unit weight, Small intestine, Average ([6]; 5 min. after administration): 0.729 % ID/g
- radioactive distribution per unit weight, Spleen, Average ([6]; 5 min. after administration): 0.460 % ID/g
- radioactive distribution per unit weight, Stomach, Average ([6]; 5 min. after administration): 0.203 % ID/g
- radioactive distribution per unit weight, Adrenal gland, Average ([6]; 30 min. after administration): 2.364 % ID/g
- radioactive distribution per unit weight, Blood, Average ([6]; 30 min. after administration): 0.240 % ID/g
- radioactive distribution per unit weight, Bone, Average ([6]; 30 min. after administration): 0.136 % ID/g
- radioactive distribution per unit weight, Brain, Average ([6]; 30 min. after administration): 0.220 % ID/g
- radioactive distribution per unit weight, Heart, Average ([6]; 30 min. after administration): 0.220 % ID/g
- radioactive distribution per unit weight, Kidney, Average ([6]; 30 min. after administration): 2.102 % ID/g
- radioactive distribution per unit weight, Large intestine, Average ([6]; 30 min. after administration): 0.096 % ID/g
- radioactive distribution per unit weight, Liver, Average ([6]; 30 min. after administration): 1.197 % ID/g
- radioactive distribution per unit weight, Lung, Average ([6]; 30 min. after administration): 0.410 % ID/g
- radioactive distribution per unit weight, Marrow, Average ([6]; 30 min. after administration): 0.285 % ID/g
- radioactive distribution per unit weight, Muscle, Average ([6]; 30 min. after administration): 0.092 % ID/g
- radioactive distribution per unit weight, Pancreas, Average ([6]; 30 min. after administration): 0.338 % ID/g
- radioactive distribution per unit weight, Small intestine, Average ([6]; 30 min. after administration): 3.964 % ID/g
- radioactive distribution per unit weight, Spleen, Average ([6]; 30 min. after administration): 0.207 % ID/g
- radioactive distribution per unit weight, Stomach, Average ([6]; 30 min. after administration): 1.081 % ID/g
- radioactive distribution per unit weight, Adrenal gland, Average ([6]; 60 min. after administration): 1.775 % ID/g
- radioactive distribution per unit weight, Blood, Average ([6]; 60 min. after administration): 0.203 % ID/g
- radioactive distribution per unit weight, Bone, Average ([6]; 60 min. after administration): 0.102 % ID/g
- radioactive distribution per unit weight, Brain, Average ([6]; 60 min. after administration): 0.111 % ID/g
- radioactive distribution per unit weight, Heart, Average ([6]; 60 min. after administration): 0.134 % ID/g
- radioactive distribution per unit weight, Kidney, Average ([6]; 60 min. after administration): 1.630 % ID/g
- radioactive distribution per unit weight, Large intestine, Average ([6]; 60 min. after administration): 0.099 % ID/g
- radioactive distribution per unit weight, Liver, Average ([6]; 60 min. after administration): 0.836 % ID/g
- radioactive distribution per unit weight, Lung, Average ([6]; 60 min. after administration): 0.243 % ID/g
- radioactive distribution per unit weight, Marrow, Average ([6]; 60 min. after administration): 0.000 % ID/g
- radioactive distribution per unit weight, Muscle, Average ([6]; 60 min. after administration): 0.062 % ID/g
- radioactive distribution per unit weight, Pancreas, Average ([6]; 60 min. after administration): 0.247 % ID/g
- radioactive distribution per unit weight, Small intestine, Average ([6]; 60 min. after administration): 5.924 % ID/g
- radioactive distribution per unit weight, Spleen, Average ([6]; 60 min. after administration): 0.154 % ID/g
- radioactive distribution per unit weight, Stomach, Average ([6]; 60 min. after administration): 1.476 % ID/g
- radioactive distribution per unit weight, Adrenal gland, Average ([6]; 180 min. after administration): 0.754 % ID/g
- radioactive distribution per unit weight, Blood, Average ([6]; 180 min. after administration): 0.139 % ID/g
- radioactive distribution per unit weight, Bone, Average ([6]; 180 min. after administration): 0.070 % ID/g
- radioactive distribution per unit weight, Brain, Average ([6]; 180 min. after administration): 0.027 % ID/g
- radioactive distribution per unit weight, Heart, Average ([6]; 180 min. after administration): 0.061 % ID/g
- radioactive distribution per unit weight, Kidney, Average ([6]; 180 min. after administration): 0.643 % ID/g
- radioactive distribution per unit weight, Large intestine, Average ([6]; 180 min. after administration): 3.294 % ID/g
- radioactive distribution per unit weight, Liver, Average ([6]; 180 min. after administration): 0.374 % ID/g
- radioactive distribution per unit weight, Lung, Average ([6]; 180 min. after administration): 0.163 % ID/g
- radioactive distribution per unit weight, Marrow, Average ([6]; 180 min. after administration): 0.000 % ID/g
- radioactive distribution per unit weight, Muscle, Average ([6]; 180 min. after administration): 0.027 % ID/g
- radioactive distribution per unit weight, Pancreas, Average ([6]; 180 min. after administration): 0.088 % ID/g
- radioactive distribution per unit weight, Small intestine, Average ([6]; 180 min. after administration): 2.870 % ID/g
- radioactive distribution per unit weight, Spleen, Average ([6]; 180 min. after administration): 0.084 % ID/g
- radioactive distribution per unit weight, Stomach, Average ([6]; 180 min. after administration): 1.272 % ID/g
- Radioactive accumulation per unit weight in brain ([5]; after 2 min.): 1.26 % ID/g
- Radioactive accumulation per unit weight in brain ([5]; after 5 min.): 0.89 % ID/g
- Radioactive accumulation per unit weight in brain ([5]; after 30 min.): 0.19 % ID/g
- Radioactive accumulation per unit weight in brain ([5]; after 60 min.): 0.09 % ID/g

Compound: COc1ccc(-c2cn3cc([123I])ccc3n2)cc1 [[^123I]-6-iodo-2-(4′-methoxyphenyl)imidazo[1,2-a]pyridine]
- accumulation of radioactivity in amygdaloid nucleus on the side to which the physiological saline solution was injected [2]: no significant accumulation of radioactivity
- accumulation of radioactivity in amygdaloid nucleus on the side to which the amyloid suspension was injected [3]: marked accumulation of radioactivity
- logPoctanol value [4]: 1.7
- Radioactive accumulation per unit weight in brain ([5]; after 2 min.): 1.04 % ID/g
- Radioactive accumulation per unit weight in brain ([5]; after 5 min.): 0.72 % ID/g
- Radioactive accumulation per unit weight in brain ([5]; after 30 min.): 0.12 % ID/g
- Radioactive accumulation per unit weight in brain ([5]; after 60 min.): 0.04 % ID/g

Compound: CN(C)c1ccc(-c2cn3cc([123I])ccc3n2)cc1 [[^123I]-IMPY, reference compound]
- logPoctanol value [4]: 1.9
- Radioactive accumulation per unit weight in brain ([5]; after 2 min.): 1.19 % ID/g
- Radioactive accumulation per unit weight in brain ([5]; after 5 min.): 0.97 % ID/g
- Radioactive accumulation per unit weight in brain ([5]; after 30 min.): 0.23 % ID/g
- Radioactive accumulation per unit weight in brain ([5]; after 60 min.): 0.09 % ID/g
